Test results as given in US20150056166A1, “FLAVONE DERIVATIVES AND THEIR USE” (Twincore GmbH, priority 2012, published 2015).
Where two headings read alike, the source gives them in different places.

Tests used:
JcR-2a virus particles = assay: Antiviral activity against early steps of HCV cell entry, synchronized JcR-2a infection (FIG. 3); type: cell-based; conditions: Hepatitis C virus
Description: FIG. 3: BJ486K inhibits cell entry post virus attachment. The design of the JcR-2a reporter virus construct is given at the top. Huh7-Lunet/CD81 cells were inoculated with concentrated JcR-2a particles at 4° C. for 60 minutes. Subsequently, unbound virus particles were washed away and cells were shifted to 37° C. to permit synchronized cell entry. According to the 8 experimental protocols depicted in the middle, various cell entry inhibitors including heparin (50 μg/ml), ITX5061 (10 μM), CD81-specific antibody JS-81 (2 μg/ml) and BJ486K (20 μM) were either present during inoculation (protocol 1) or were added at different time points after inoculation (protocols 2 to 8). In each case, inhibitor was present for 4 h (dashed line) and was then washed away. Efficiency of cell entry was determined 48 h post inoculation by determination of luciferase activity and is expressed relative to control infections conducted in the presence of solvent alone (DMSO). Mean values of three independent experiments each with quadruplicate measurements including the standard deviation are shown.
JcR-2a virus particles were incubated with Huh7-Lunet/CD81 cells seeded as described above for 1 h at 4° C. to synchronize cell entry. Various inhibitors including 50 μg/ml heparin (Sigma-Aldrich), CD81-specific antibody JS-81 (2 μg/ml; Becton Dickinson), ITX 5061 (10 μM) or BJ486K (20 μM), were added during virus inoculation (protocol 1) or at indicated time points after virus inoculation (protocol 2-8). After 4 h inhibitor treatment, medium was changed to fresh culture fluid without inhibitors and the cells were lysed 48 h after inoculation as described above. Efficiency of infection was determined by luciferase assay using a tube luminometer (Lumat LB9507, Berthold, Freiburg, Germany).
To resolve which step of HCV cell entry is inhibited by BJ486K, we assessed its antiviral activity when administered at different time points during the early phase of infection. To this end, Huh7-Lunet/CD81 cells were inoculated for one hour at 4° C. with a reporter virus prepared in the absence of drugs. […]

S52 (GT3a) = assay: Luciferase infection assay, chimeric reporter virus S52/3a/R2a in Huh7-Lunet/CD81 cells; type: cell-based, HCV; conditions: Hepatitis C virus, Huh-7, 72 h
SA13 (GT5a) = assay: Luciferase infection assay, chimeric reporter virus SA13/5a/R2a in Huh7-Lunet/CD81 cells; type: cell-based, HCV; conditions: Hepatitis C virus, Huh-7, 72 h
J4 (GT1b) = assay: Luciferase infection assay, chimeric reporter virus J4/1b/R2a in Huh7-Lunet/CD81 cells; type: cell-based, HCV; conditions: Hepatitis C virus, Huh-7, 72 h
[1] = tested on: Luc-Jc1/E2/G451R reporter viruses; assay: Resistance test, Luc-Jc1 versus Luc-Jc1/E2/G451R reporter virus; type: cell-based, HCV; conditions: Huh7-Lunet/CD81 cells, luciferase 72 h
Description: FIG. 4: BJ486K is not affected by viral resistance towards a SR-BI-targeting compound, inhibits HCV of different genotypes and prevents infection of primary human hepatocytes Huh7-Lunet/CD81 cells were inoculated with Luc-Jc1 or Luc-Jc1/E2/G451R reporter viruses in the presence of increasing doses of (A) ITX 5061 or (B) BJ486K. Cells were lysed 72 h later. Luciferase activity was determined and is expressed relative to control infections conducted in the presence of DMSO. Mean values of four independent experiments each with quadruplicate measurements including the standard deviation are shown. (C) Huh7-Lunet/CD81 cells were inoculated with genotype 1a, 1b, 2b, 3a, 4a, 5a and 6a chimeric reporter viruses in the presence of increasing doses of BJ486K. Luciferase activity was determined 72 h later and is expressed relative to infections in the presence of DMSO. Mean values of three independent experiments, each with triplicate measurements, are given. (D) Primary human hepatocytes were inoculated with Con1/C3 in the presence of DMSO or increasing concentrations of BJ486K. The inhibition of HCV infection was assessed by focus-formation assay and is expressed as % inhibition relative to DMSO-treated cells. Mean values of duplicate measurements including the error range are given. […]

For `COc1ccc(-c2cc(=O)c3c(O)c(O)c(OC)cc3o2)cc1` [BJ486K, 5,6-Dihydroxy-7-methoxy-2-(4-methoxy-phenyl)-chromen-4-one], the inhibition at 20 µM (JcR-2a virus particles; 20 min, read-out: inhibition of HCV infection) was roughly 80%, the inhibition at 20 µM (JcR-2a virus particles; read-out: inhibition of entry) was greater than 90% and the IC50 (S52 (GT3a)) was 2.89 µM. The IC90 (S52 (GT3a)) was 10.7 µM, the IC50 (SA13 (GT5a)) was 1.39 µM and the IC90 (SA13 (GT5a)) was 5.33 µM. For the same compound, the IC50 (J4 (GT1b)) was 2.35 µM, the IC90 (J4 (GT1b)) was 9.29 µM and the “antiviral activity against G451R mutant compared with wild type” value [1] was “not changed”.
